According to US10781204B2, “TYK2 inhibitors and uses thereof” (Nimbus Lakshmi, Inc., priority 2015, dated 2020):

Columns and labels:
TYK2 = TYK2 (Homo sapiens (Human), UniProt P29597); test: Tyk2 radioactive kinase assay; assay type: biochemical; conditions: ATP 10 μM
Summary of the method: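 Recombinant human TYK2 (Invitrogen) was mixed with 20 μM peptide substrate in a buffer of 20 mM Hepes pH 7.5, 10 mM MgCl2, 1 mM EGTA, 0.02% Brij35, 0.02 mg/mL BSA, 0.1 mM […], 2 mM DTT and 1% DMSO, and compounds in DMSO were added. Adding ^33P-ATP (10 μM ATP) started the reaction, which ran 120 min at room temperature. Mixtures were then spotted onto P81 ion-exchange paper, washed thoroughly in 0.75% phosphoric acid, and counted for radioactivity.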

JAK2 = JAK2 (Homo sapiens (Human), UniProt O60674); test: JAK2 radioactive kinase assay; assay type: biochemical; conditions: ATP 10 μM
JAK2, sequence (O60674 whole entry): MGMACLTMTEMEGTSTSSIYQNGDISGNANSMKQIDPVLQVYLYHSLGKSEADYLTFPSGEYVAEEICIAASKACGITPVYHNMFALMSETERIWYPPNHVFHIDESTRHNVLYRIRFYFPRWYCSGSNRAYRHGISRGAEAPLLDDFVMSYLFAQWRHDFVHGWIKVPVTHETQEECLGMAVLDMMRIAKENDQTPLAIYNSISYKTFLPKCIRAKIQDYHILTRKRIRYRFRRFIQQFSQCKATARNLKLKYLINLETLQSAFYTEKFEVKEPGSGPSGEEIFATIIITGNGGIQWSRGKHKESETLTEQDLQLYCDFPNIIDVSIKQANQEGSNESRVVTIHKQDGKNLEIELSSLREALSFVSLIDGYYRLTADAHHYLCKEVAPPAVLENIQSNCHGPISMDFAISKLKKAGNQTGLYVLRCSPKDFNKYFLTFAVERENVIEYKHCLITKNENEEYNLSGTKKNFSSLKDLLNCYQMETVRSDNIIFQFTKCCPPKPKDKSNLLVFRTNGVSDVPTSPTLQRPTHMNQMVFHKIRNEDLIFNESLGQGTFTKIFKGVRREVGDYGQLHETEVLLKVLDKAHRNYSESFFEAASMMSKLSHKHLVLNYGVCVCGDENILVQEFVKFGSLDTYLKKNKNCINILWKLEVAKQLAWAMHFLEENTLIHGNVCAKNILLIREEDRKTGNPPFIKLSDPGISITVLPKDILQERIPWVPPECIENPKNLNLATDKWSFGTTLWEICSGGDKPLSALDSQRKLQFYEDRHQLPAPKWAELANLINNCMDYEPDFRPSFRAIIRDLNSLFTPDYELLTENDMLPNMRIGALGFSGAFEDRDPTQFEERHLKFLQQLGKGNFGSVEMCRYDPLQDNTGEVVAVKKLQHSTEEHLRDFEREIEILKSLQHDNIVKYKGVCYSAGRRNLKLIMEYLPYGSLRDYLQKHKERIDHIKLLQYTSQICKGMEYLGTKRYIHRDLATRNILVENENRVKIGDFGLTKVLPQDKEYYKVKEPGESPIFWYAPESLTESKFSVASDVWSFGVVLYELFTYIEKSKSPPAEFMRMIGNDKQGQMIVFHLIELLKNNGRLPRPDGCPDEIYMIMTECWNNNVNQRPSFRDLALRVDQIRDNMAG
Summary of the method: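 Radiometric assay in Hepes pH 7.5, MgCl2, EGTA, Brij35, BSA, DTT, 1% DMSO, with 10 μM [33P]ATP, 120 min at room temp; P81 paper capture and counting. […]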

[1] = test system: Tyk2-pSTAT4 (IL-12 induced pSTAT4); test: IL-12 induced pSTAT4 in human PBMC; assay type: cell-based; conditions: Homo sapiens, PBMC, 0.5 h, 1.7 ng/mL IL-12, 30 minutes
Summary of the method: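 pSTAT4 and total STAT4 quantified by MSD in cell lysates after 30 minutes of 1.7 ng/mL IL-12 stimulation. Beforehand, compound (0.1% DMSO final) sat 1 hr at 37 C on 200,000 thawed buffy-coat PBMC per well in serum-containing medium.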

[2] = test system: JAK2-pSTAT5 (GM-CSF induced pSTAT5); test: GM-CSF induced pSTAT5 in human PBMC; assay type: cell-based; conditions: Homo sapiens, PBMC, 20 min, 5 ng/mL GM-CSF
Procedure: Human PBMC are isolated from buffy coat and are stored frozen for assays as needed. Cells for assay are thawed and resuspended in complete media containing serum, then cells are diluted to 1.67 E6 cells/ml so that 120 ul per well is 200,000 cells. 15 ul of compound or DMSO is added to the well at the desired concentrations and incubated at 1 hr at 37 C. 15 ul of stimulus (final concentration of 1.7 ng/mL IL-12) is added for 30 minutes prior to pSTAT4 and total STAT4 analysis using cell lysates prepared and analyzed by MSD reagents as per manufacturer protocol. The final DMSO concentration of compound in the assay is 0.1%.
Cells are prepared for analysis as in the above procedure and 15 ul of GM-CSF (final concentration 5 ng/mL) is added for 20 minutes prior to pSTAT5 and total STAT5 analysis using cell lysates prepared and analyzed by MSD reagents as per manufacturer protocol. The final DMSO concentration of compound in the assay is 0.1%.

TYK2, sequence (P29597 whole entry): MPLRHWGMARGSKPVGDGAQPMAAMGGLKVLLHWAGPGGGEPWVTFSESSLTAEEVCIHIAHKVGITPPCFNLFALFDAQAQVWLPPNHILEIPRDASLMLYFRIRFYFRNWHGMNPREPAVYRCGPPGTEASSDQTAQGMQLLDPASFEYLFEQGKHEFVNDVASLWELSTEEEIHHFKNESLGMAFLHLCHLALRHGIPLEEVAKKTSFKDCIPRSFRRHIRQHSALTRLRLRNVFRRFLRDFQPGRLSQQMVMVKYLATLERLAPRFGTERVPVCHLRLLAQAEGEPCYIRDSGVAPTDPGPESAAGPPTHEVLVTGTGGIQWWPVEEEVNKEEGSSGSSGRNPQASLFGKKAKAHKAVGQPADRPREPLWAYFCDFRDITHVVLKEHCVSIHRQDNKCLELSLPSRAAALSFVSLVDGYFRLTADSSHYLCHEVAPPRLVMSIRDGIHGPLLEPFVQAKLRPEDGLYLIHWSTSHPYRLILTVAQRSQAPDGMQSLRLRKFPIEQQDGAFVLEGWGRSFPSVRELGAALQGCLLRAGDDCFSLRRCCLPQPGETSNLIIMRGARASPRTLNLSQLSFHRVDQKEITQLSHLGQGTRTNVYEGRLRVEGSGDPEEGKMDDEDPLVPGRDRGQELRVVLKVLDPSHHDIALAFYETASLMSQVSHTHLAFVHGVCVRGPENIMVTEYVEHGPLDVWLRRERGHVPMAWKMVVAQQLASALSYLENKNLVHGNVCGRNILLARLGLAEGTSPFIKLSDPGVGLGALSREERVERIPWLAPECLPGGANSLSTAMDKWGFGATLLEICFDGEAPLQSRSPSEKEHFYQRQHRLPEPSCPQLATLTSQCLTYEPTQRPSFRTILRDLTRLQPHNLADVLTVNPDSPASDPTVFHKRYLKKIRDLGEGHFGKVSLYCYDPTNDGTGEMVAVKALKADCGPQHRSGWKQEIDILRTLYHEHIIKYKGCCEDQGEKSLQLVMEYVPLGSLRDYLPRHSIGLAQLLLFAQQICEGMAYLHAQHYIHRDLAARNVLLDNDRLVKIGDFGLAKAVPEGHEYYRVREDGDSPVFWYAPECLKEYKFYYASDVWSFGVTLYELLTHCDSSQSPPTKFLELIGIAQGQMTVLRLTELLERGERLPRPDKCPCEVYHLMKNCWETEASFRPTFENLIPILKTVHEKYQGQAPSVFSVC

SMILES | Ki (TYK2) [nM] | Ki (JAK2) [nM] | EC50 [1] [nM] | EC50 [2] [nM]
N#Cc1cccc(F)c1-c1cc(-n2ccc(N3CCC[C@@](O)(C(F)(F)F)C3)n2)c2c(n1)CNC2=O [I-89, (S)-3-fluoro-2-(4-(3-(3-hydroxy-3-(trifluoromethyl)piperidin-1-yl)-1H-pyrazol-1-yl)-5-oxo-6,7-dihydro-5H-pyrrolo[3,4-b]pyridin-2-yl)benzonitrile] | 0.1 to 10 | 10 to 100 | 100 to 2000 | > 2000
N#Cc1cccc(F)c1-c1cc(-n2ccc(N3CCC4(C3)OCCO4)n2)c2c(n1)CNC2=O [I-100, 2-(4-(3-(1,4-dioxa-7-azaspiro[4.4]nonan-7-yl)-1H-pyrazol-1-yl)-5-oxo-6,7-dihydro-5H-pyrrolo[3,4-b]pyridin-2-yl)-3-fluorobenzonitrile] | 0.009 to 0.1 | 0.1 to 10 | 30 to 100 | 100 to 2000
N#Cc1cccc(F)c1-c1cc(-n2ccc([C@H]3CCCO3)n2)c2c(n1)CNC2=O [I-103, (R)-3-fluoro-2-(5-oxo-4-(3-(tetrahydrofuran-2-yl)-1H-pyrazol-1-yl)-6,7-dihydro-5H-pyrrolo[3,4-b]pyridin-2-yl)benzonitrile] | 0.1 to 10 | 10 to 100 | 100 to 2000 | 100 to 2000
N#Cc1cccc(F)c1-c1cc(-n2ccc([C@@H]3CCCO3)n2)c2c(n1)CNC2=O [I-104, (S)-3-fluoro-2-(5-oxo-4-(3-(tetrahydrofuran-2-yl)-1H-pyrazol-1-yl)-6,7-dihydro-5H-pyrrolo[3,4-b]pyridin-2-yl)benzonitrile] | 0.1 to 10 | 100 to 1000 | 100 to 2000 | 100 to 2000
C[C@@H]1CC(O)C[C@H](C)N1c1ccn(-c2cc(-c3c(F)cccc3C#N)nc3c2C(=O)NC3)n1 (stereo partly drawn) [I-107, 3-fluoro-2-(4-(3-((2S,6R)-4-hydroxy-2,6-dimethylpiperidin-1-yl)-1H-pyrazol-1-yl)-5-oxo-6,7-dihydro-5H-pyrrolo[3,4-b]pyridin-2-yl)benzonitrile] | 10 to 100 | 100 to 1000 | 100 to 2000 | 100 to 2000
[2H]C1([2H])NC(=O)c2c(-n3ccc(N4CCC[C@@](C)(O)C4)n3)cc(-c3c(F)cccc3C#N)nc21 [I-111, (R)-3-fluoro-2-(4-(3-(3-hydroxy-3-methylpiperidin-1-yl)-1H-pyrazol-1-yl)-5-oxo-6,7-dihydro-5H-pyrrolo[3,4-b]pyridin-2-yl-7,7-d2)benzonitrile] | 0.1 to 10 | 10 to 100 | 30 to 100 | 100 to 2000
C[C@H]1CC[C@H](O)CN1c1ccn(-c2cc(-c3c(F)cccc3C#N)nc3c2C(=O)NC3)n1 [I-112, 3-fluoro-2-(4-(3-((2S,5S)-5-hydroxy-2-methylpiperidin-1-yl)-1H-pyrazol-1-yl)-5-oxo-6,7-dihydro-5H-pyrrolo[3,4-b]pyridin-2-yl)benzonitrile] | 0.1 to 10 | 10 to 100 | 100 to 2000 | 100 to 2000
C[C@H]1CC[C@@H](O)CN1c1ccn(-c2cc(-c3c(F)cccc3C#N)nc3c2C(=O)NC3)n1 [I-113, 3-fluoro-2-(4-(3-((2S,5R)-5-hydroxy-2-methylpiperidin-1-yl)-1H-pyrazol-1-yl)-5-oxo-6,7-dihydro-5H-pyrrolo[3,4-b]pyridin-2-yl)benzonitrile] | 0.1 to 10 | 10 to 100 | 100 to 2000 | 100 to 2000
[2H]C1([2H])NC(=O)c2c(-n3ccc(N4CC[C@@H](O)C4)n3)cc(-c3c(F)cccc3C#N)nc21 [I-114, (R)-3-fluoro-2-(4-(3-(3-hydroxypyrrolidin-1-yl)-1H-pyrazol-1-yl)-5-oxo-6,7-dihydro-5H-pyrrolo[3,4-b]pyridin-2-yl-7,7-d2)benzonitrile] | 0.1 to 10 | 0.1 to 10 | 30 to 100 | 100 to 2000
N#Cc1cccc(F)c1-c1cc(-n2ccc(N3CCC[C@@](N)(C(F)(F)F)C3)n2)c2c(n1)CNC2=O [I-118, (S)-2-(4-(3-(3-amino-3-(trifluoromethyl)piperidin-1-yl)-1H-pyrazol-1-yl)-5-oxo-6,7-dihydro-5H-pyrrolo[3,4-b]pyridin-2-yl)-3-fluorobenzonitrile] | 0.009 to 0.1 | 0.1 to 10 | 30 to 100 | 100 to 2000
N#Cc1cccc(F)c1-c1cc(-n2ccc(N3CCC[C@](N)(C(F)(F)F)C3)n2)c2c(n1)CNC2=O [I-119, (R)-2-(4-(3-(3-amino-3-(trifluoromethyl)piperidin-1-yl)-1H-pyrazol-1-yl)-5-oxo-6,7-dihydro-5H-pyrrolo[3,4-b]pyridin-2-yl)-3-fluorobenzonitrile] | 0.009 to 0.1 | 0.1 to 10 | 30 to 100 | 100 to 2000
N#Cc1cccc(F)c1-c1cc(-n2cc3c(n2)CNC3)c2c(n1)CNC2=O [I-124, 2-(4-(5,6-dihydropyrrolo[3,4-c]pyrazol-2 (4H)-yl)-5-oxo-6,7-dihydro-5H-pyrrolo[3,4-b]pyridin-2-yl)-3-fluorobenzonitrile] | 10 to 100 | 100 to 1000 | > 2000 | > 2000

The next lines start with the values.

Ki (TYK2) [nM] | Ki (JAK2) [nM] | EC50 [1] [nM] | EC50 [2] [nM] | SMILES
0.1 to 10 | 10 to 100 | 100 to 2000 | > 2000 | N#Cc1cccc(F)c1-c1cc(-n2ccc(N3CCCC(C(=O)O)C3)n2)c2c(n1)CNC2=O (stereo not drawn) [I-91, 1-(1-(2-(2-cyano-6-fluorophenyl)-5-oxo-6,7-dihydro-5H-pyrrolo[3,4-b]pyridin-4-yl)-1H-pyrazol-3-yl)piperidine-3-carboxylic acid]
0.1 to 10 | 10 to 100 | 30 to 100 | 100 to 2000 | C[C@@]1(O)CCN(c2ccn(-c3cc(-c4c(F)cccc4C#N)nc4c3C(=O)NC4)n2)C1 [I-92, (R)-3-fluoro-2-(4-(3-(3-hydroxy-3-methylpyrrolidin-1-yl)-1H-pyrazol-1-yl)-5-oxo-6,7-dihydro-5H-pyrrolo[3,4-b]pyridin-2-yl)benzonitrile]
0.1 to 10 | 10 to 100 | 30 to 100 | 100 to 2000 | N#Cc1cccc(F)c1-c1cc(-n2ccc(N3CCCC(C#N)C3)n2)c2c(n1)CNC2=O (stereo not drawn) [I-95, 1-(1-(2-(2-cyano-6-fluorophenyl)-5-oxo-6,7-dihydro-5H-pyrrolo[3,4-b]pyridin-4-yl)-1H-pyrazol-3-yl)piperidine-3-carbonitrile]
0.1 to 10 | 10 to 100 | 30 to 100 | 100 to 2000 | N#Cc1cccc(F)c1-c1cc(-n2ccc(N3CCC[C@@H](CO)C3)n2)c2c(n1)CNC2=O [I-97, (R)-3-fluoro-2-(4-(3-(3-(hydroxymethyl)piperidin-1-yl)-1H-pyrazol-1-yl)-5-oxo-6,7-dihydro-5H-pyrrolo[3,4-b]pyridin-2-yl)benzonitrile]
0.1 to 10 | 10 to 100 | 30 to 100 | 100 to 2000 | N#Cc1cccc(F)c1-c1cc(-n2ccc(N3CCC[C@H](CO)C3)n2)c2c(n1)CNC2=O [I-98, (S)-3-fluoro-2-(4-(3-(3-(hydroxymethyl)piperidin-1-yl)-1H-pyrazol-1-yl)-5-oxo-6,7-dihydro-5H-pyrrolo[3,4-b]pyridin-2-yl)benzonitrile]
0.1 to 10 | 0.1 to 10 | 100 to 2000 | 100 to 2000 | CS(=O)(=O)NC1CCN(c2ccn(-c3cc(-c4c(F)cccc4C#N)nc4c3C(=O)NC4)n2)C1 (stereo not drawn) [I-120, N-(1-(1-(2-(2-cyano-6-fluorophenyl)-5-oxo-6,7-dihydro-5H-pyrrolo[3,4-b]pyridin-4-yl)-1H-pyrazol-3-yl)pyrrolidin-3-yl)methanesulfonamide]
0.1 to 10 | 10 to 100 | 30 to 100 | > 2000 | N#Cc1cccc(F)c1-c1cc(-n2ccc(N3CCOCC(O)C3)n2)c2c(n1)CNC2=O (stereo not drawn) [I-121, 3-fluoro-2-(4-(3-(6-hydroxy-1,4-oxazepan-4-yl)-1H-pyrazol-1-yl)-5-oxo-6,7-dihydro-5H-pyrrolo[3,4-b]pyridin-2-yl)benzonitrile]
0.1 to 10 | 10 to 100 | 100 to 2000 | 100 to 2000 | N#Cc1cccc(F)c1-c1cc(-n2ccc(N3CCCC(C(N)=O)C3)n2)c2c(n1)CNC2=O (stereo not drawn) [I-122, 1-(1-(2-(2-cyano-6-fluorophenyl)-5-oxo-6,7-dihydro-5H-pyrrolo[3,4-b]pyridin-4-yl)-1H-pyrazol-3-yl)piperidine-3-carboxamide]
0.1 to 10 | 0.1 to 10 | 100 to 2000 | > 2000 | CC(=O)NC1CCCN(c2ccn(-c3cc(-c4c(F)cccc4C#N)nc4c3C(=O)NC4)n2)C1 (stereo not drawn) [I-123, N-(1-(1-(2-(2-cyano-6-fluorophenyl)-5-oxo-6,7-dihydro-5H-pyrrolo[3,4-b]pyridin-4-yl)-1H-pyrazol-3-yl)piperidin-3-yl)acetamide]
